Data from a melting point compilation (Tetko et al.).

melting point [°C] | SMILES
124 to 126 | O=C(O)c1cccn1Cc1ccccc1
149 to 151 | COc1ccccc1-c1ccccc1C(=O)O
92 to 94 | CC(=O)NCc1ccc(N)cc1
113 to 115 | Nc1ncn(Cc2ccccn2)n1
75 to 77 | CC(=O)OCc1ccc(S(=O)(=O)C(F)F)cc1
248 to 250 | CCOc1ccc(-c2csc(N)n2)cc1
110 to 112 | CS(=O)(=O)c1cccc(OCC(=O)O)c1
155 to 157 | Nc1ccc(-c2nnco2)cc1
179 to 181 | CC(=O)Nc1ccccc1OCc1ccc(C(=O)O)o1
123 to 125 | O=C(Cc1nc2ccccc2n1C(F)F)c1cccs1
62 to 64 | ClCc1ccc(Oc2cccc(Cl)c2Cl)cc1
168 to 170 | O=C(Nc1ccc(-c2ccccc2)cc1)OCC(F)(F)F
112 to 114 | O=Cc1ccc(OCc2ccncc2)cc1
160 to 162 | COCCS(=O)(=O)c1ccc(C(=O)O)cc1
196 to 198 | O=C(O)Cn1nc(-c2ccccc2)oc1=O
119 to 121 | CCOC(=O)c1cnn(-c2ccc(OCC)cc2)c1N
78 to 80 | CCCCc1ccc(CC(=O)O)cc1
241 to 243 | O=C(O)Cn1cnc2ccccc2c1=O

melting point [°C] | SMILES
135 to 137 | CSc1nn(-c2ccccc2)c(N)c1C#N
124 to 126 | O=Cc1csc(-c2ccc(Cl)cc2)n1
145 to 147 | Nc1nnc(SCc2ccc(F)cc2)s1
289 to 291 | Cc1nc(C)n(-c2ccc(C(=O)O)cc2)n1
125 to 127 | O=C(O)COc1cccc2cccnc12
379 to 381 | CC(=O)Nc1ccc(N2C(=O)c3ccc(C(=O)O)cc3C2=O)cc1
113 to 115 | CCOC(=O)COc1ccc(Cl)c2cccnc12
84 to 86 | O=S(=O)(Cl)C1c2ccccc2-c2ccccc21
172 to 174 | COc1ccccc1NS(=O)(=O)c1ccc(O)c(C(=O)O)c1
123 to 125 | COc1cc(C#N)ccc1Oc1ccc(N)cc1
303 to 305 | COc1ccc(CCC(C)(N)C(=O)O)cc1 (stereo not drawn)
102 to 104 | CCOc1ccc(-c2nc(CCl)co2)cc1
167 to 169 | COc1ccc(C2(C(=O)O)CCOCC2)cc1
120 to 122 | O=C1C=CC=NC1=C(O)Nc1cccnc1
96 to 98 | NC(Cc1ccc(Cl)cc1)=NO
38 to 40 | CCOC(=O)CCS(=O)(=O)c1ccc(F)cc1
95 to 100 | O=Cc1ccc(Br)cc1[N+](=O)[O-]
148 to 150 | NNC(=O)c1ccc(COc2ccccc2)cc1

The next lines start with the compound.

SMILES | melting point [°C]
c1ccc2c(c1)nc1n2CCN1 | 194 to 206
Cc1ccc(-c2noc3nc(C)cc(C(=O)O)c23)cc1 | 261 to 263
CC1CN=C(Nc2cccc(S(=O)(=O)N(C)C)c2)S1 (stereo not drawn) | 111 to 113
Nc1ccc(-c2nc(C3CC3)n[nH]2)cc1 | 192 to 194
O=C(O)Cn1c(=O)[nH]c2ccccc21 | 247 to 249
Cc1ccc(SC2(C(=O)O)CCCC2)cc1 | 80 to 82
NS(=O)(=O)Cc1c(F)cccc1F | 153 to 155
COc1ccc(C(=O)O)cc1S(=O)(=O)N1CCCCCC1 | 190 to 194
COc1cc(CCl)cc(Br)c1OC | 60 to 62
O=C(O)CCc1nc2cc(Cl)ccc2s1 | 145 to 147
CCOC(=O)c1c(C)oc2nc(CCl)nc(N)c12 | 191 to 195
O=C(O)C1(c2cccc(F)c2)CCCCC1 | 135 to 137
O=C1CC(=O)Nc2ccccc2N1 | 383 to 385
COc1cccc(C(N)=NO)c1 | 103 to 105
COC(=O)c1occc1CC#N | 62 to 64
Cc1nn(C)c2sc(C(=O)NC(C)C(=O)O)cc12 (stereo not drawn) | 269 to 271
C=CCNC(=O)CC#N | 65 to 67
CCN1C(=N)C(C)(C)N(C)C1=O | 88 to 90
O=C(O)CN1CC(=O)Nc2ccccc21 | 218 to 220
OCc1c[nH]c2ccc(Br)cc12 | 112 to 114
N#Cc1cc(N)cnc1N | 129 to 131
Cc1sc2nc(CCl)[nH]c(=O)c2c1C | 190 to 192
COc1cc(CC#N)ccc1SC(F)(F)F | 59 to 61

SMILES | melting point [°C]
COCCn1nnc(C(=O)O)c1C(F)(F)F | 55 to 57
Cc1c(N)cccc1CS(C)=O (stereo not drawn) | 183 to 185
CC(C)COC(=O)N1CCC(C(=O)O)CC1 | 69 to 71
Cn1cc(-c2ccc(Cl)nn2)cn1 | 188 to 190
CCCS(=O)(=O)N1CCCC(C(=O)O)C1 (stereo not drawn) | 122 to 124
CN(C(=O)C(C)(C)C)c1ccc(O)cc1 | 189 to 191
N#CCc1nc2cc(Cl)ccc2s1 | 155 to 157
CCN1CCN(c2ccc(C(C)=O)cc2F)CC1 | 68 to 70
NC(=O)c1cnn2c3c(cnc12)CCOC3=O | 289 to 291
CSc1cc2c(cc1C=O)OCCO2 | 112 to 114
COc1ccc(CC#N)c(Cl)c1OC | 55 to 57
Nc1sc2c(c1C(=O)c1ccc(F)cc1)CCC2 | 139 to 141
C=CC(=O)ON=C(N)c1cccc(Cl)c1 | 114 to 116
COC(=O)c1ccc(S(=O)(=O)Cl)c(C)c1 | 51 to 53
NC(=O)CC(N)=S | 97 to 110
Cc1nc(N)oc1C | 64 to 66
O=c1[nH]c2c(Br)cccc2c(=O)o1 | 169 to 171
COc1ccccc1-c1cc(N)[nH]n1 | 94 to 96
O=C(O)CC=Cc1cccc(F)c1 | 64 to 66
CC1NCCn2c(Cl)ccc21 (stereo not drawn) | 53 to 55
O=C(O)c1ccnc(NC2CCCC2)c1 | 296 to 298
CNc1ncc(Br)cn1 | 116 to 118
CCC(=O)NCC(=O)O | 121 to 123

SMILES | melting point [°C]
CC(C)C(C#N)NC(=O)OC(C)(C)C (stereo not drawn) | 73 to 75
O=Cc1cnc(N2CCOCC2)s1 | 163 to 165
Nn1c(=O)[nH]c2ccccc2c1=O | 297 to 299
CCn1c(=O)c(=O)[nH]c2cc(C(=O)O)ccc21 | 270 to 285
NS(=O)(=O)N1CCCC1 | 96 to 98
Nc1ccc(S)c(Cl)c1 | 78 to 80
O=C1CC(NC(=O)C(F)(F)F)c2ccccc21 (stereo not drawn) | 149 to 151
Cc1c(N=C=S)c(=O)n(-c2ccccc2)n1C | 145 to 147
O=S(=O)(Cl)CCNS(=O)(=O)c1ccccc1 | 96 to 98
Cc1nc2nc(S)nn2c(C)c1CC(=O)O | 226 to 228
CN(C)c1ccc(N)cc1Cl | 72 to 73
O=C1CCc2cc3c(cc21)OCCO3 | 118 to 120
NS(=O)(=O)c1cc(C(=O)O)ccc1Br | 275 to 277
COc1ccc(C(=O)N2CCCC2)cc1N | 137 to 139
CSCCC(NC(=O)COc1ccccc1)C(=O)O (stereo not drawn) | 122 to 130
NNc1ccc(S(=O)(=O)C(F)F)cc1 | 72 to 74
COc1nc(C)ccc1C#N | 84 to 86
NC(=O)c1ccc(N)cc1N1CCCCC1 | 142 to 144
Cc1cc(C(=O)O)c(C)n1-c1ccc(C#N)cc1 | 249 to 251
COC(=O)c1cc([N+](=O)[O-])cc([N+](=O)[O-])c1F | 67 to 69
COc1ccc(Br)cc1CBr | 51 to 58
